Data set [1] concerns Aeromonas caviae. Briefly: Antibacterial activity against Aeromonas caviae ATCC 15648 after 48 hrs by microtiter broth dilution method. The format is functional. The following applies: ATCC 15648, 48 h. On the technique in general: Dilution methods test growth across graded concentrations, often in twofold steps.
A short description of data set [2]: Toxicity in sheep RBC assessed as minimal hemolytic concentration after 1 hr. The format is cell-based, Ovis aries. The following applies: erythrocyte.
The subject of data set [3] is Listeria monocytogenes. Briefly: Antibacterial activity against Listeria monocytogenes SOR 100 after 48 hrs by microtiter broth dilution method. The class given is functional. As to conditions: SOR 100, 48 h.
Data set [4] concerns Lactococcus garvieae. Briefly: Antibacterial activity against Lactococcus garvieae ATCC 43921 after 48 hrs by microtiter broth dilution method. The format is functional. The following applies: ATCC 43921, 48 h.
Data set [5] concerns Enterococcus faecalis. Briefly: Antibacterial activity against Enterococcus faecalis CIP 186 after 48 hrs by microtiter broth dilution method. The class given is functional. As to conditions: CIP 186, 48 h.
In data set [6] the test system is Escherichia coli. Briefly: Antibacterial activity against Escherichia coli ATCC 25922 after 48 hrs by microtiter broth dilution method. The class given is functional. As to conditions: ATCC 25922, 48 h.
Data set [7] in a line: Selectivity ratio of MHC for sheep RBC to MIC for Listeria monocytogenes SOR 100. The format is functional.
The subject of data set [8] is Salmonella enterica. Briefly: Antibacterial activity against Salmonella enterica ATCC 13076 after 48 hrs by microtiter broth dilution method. The following applies: ATCC 13076, 48 h. The format is functional.
Data set [9] concerns Staphylococcus aureus. Briefly: Antibacterial activity against Staphylococcus aureus ATCC 25923 after 48 hrs by microtiter broth dilution method. The following applies: ATCC 25923, 48 h. The format is functional.
The test system of data set [10] is Streptococcus equinus. Briefly: Antibacterial activity against Streptococcus equinus ATCC 5623 after 48 hrs by microtiter broth dilution method. The class given is functional. As to conditions: ATCC 5623, 48 h.
For data set [11], the system named is Micrococcus luteus. Briefly: Antibacterial activity against Micrococcus luteus ATCC 10240 after 48 hrs by microtiter broth dilution method. The class given is functional. The following applies: ATCC 10240, 48 h.
For data set [12], the system named is Klebsiella aerogenes. Briefly: Antibacterial activity against Enterobacter aerogenes ATCC 13048 after 48 hrs by microtiter broth dilution method. The following applies: ATCC 13048, 48 h. The format is functional.
Data set [13] is described as follows: Half life in bovine serum. The format is ADME, cell-free, Bos taurus. As to conditions: cattle.
Data set [14] in a line: Toxicity in sheep RBC assessed as hemolytic activity at 100 uM after 1 hr. As to conditions: sheep red blood cells, read-out: Activity. The class given is cell-based, Ovis aries, Erythrocyte.
Data set [15] is described as follows: Selectivity ratio of HC50 for sheep RBC to MIC for Escherichia coli ATCC 25922. The class given is functional.
Data set [16] deals with Klebsiella oxytoca. Briefly: Antibacterial activity against Klebsiella oxytoca CIP 7932 after 48 hrs by microtiter broth dilution method. As to conditions: CIP 7932, 48 h. The format is functional.
Data set [17] has as its system Priestia megaterium. Briefly: Antibacterial activity against Bacillus megaterium ATCC 10778 after 48 hrs by microtiter broth dilution method. The format is functional. As to conditions: ATCC 10778, 48 h.
Data set [18] concerns Pseudomonas aeruginosa. Briefly: Antibacterial activity against Pseudomonas aeruginosa ATCC 27853 after 48 hrs by microtiter broth dilution method. The following applies: ATCC 27853, 48 h. The format is functional.
Data set [19] in a line: Selectivity ratio of HC50 for sheep RBC to MIC for Staphylococcus aureus ATCC 25923. The format is functional.
Data set [20] in a line: Toxicity in sheep RBC assessed as hemolytic activity after 1 hr. The format is cell-based, Ovis aries, Erythrocyte. The following applies: sheep red blood cells.
The nature of data set [21]: Selectivity ratio of MHC for sheep RBC to MIC for Staphylococcus aureus ATCC 25923. The format is functional.
The nature of data set [22]: Selectivity ratio of MHC for sheep RBC to MIC for Escherichia coli ATCC 25922. The format is functional.

In brackets after ≈: the same amount, converted by molar mass.

This note sets out measurements from ChEMBL document CHEMBL2176932, “De novo cyclic pseudopeptides containing aza-β3-amino acids exhibiting antimicrobial activities” (J Med Chem, 2012).

Usually MIC stands for the smallest concentration in the dilution series that meets the test's criterion for growth inhibition. By half-life is commonly meant the time in which the quantity being followed falls by half. A word on the HC50: it is the concentration giving 50% haemolysis.

For the compound `N=C(N)NCCC[C@@H]1NC(=O)CN(CC2CCCCC2)NC(=O)[C@H](Cc2c[nH]c3ccccc23)NC(=O)CN(Cc2ccc(F)cc2)NC(=O)[C@H](Cc2c[nH]c3ccccc23)NC(=O)CN(CCCCN)NC1=O`, the minimum inhibitory concentration (MIC) in [1] is more than 100 µM; in data set [3], 6.25 µM (≈ 6.38 µg/mL); in [4], 25 µM (≈ 25.5 µg/mL); in data set [5], 50 µM (≈ 51 µg/mL); in data set [6], 25 µM (≈ 25.5 µg/mL); in data set [8], 25 µM (≈ 25.5 µg/mL). Also, the MIC in [9] is 25 µM (≈ 25.5 µg/mL); in data set [10], 6.25 µM (≈ 6.38 µg/mL); in data set [11], 3.12 µM (≈ 3.18 µg/mL); in data set [12], 12.5 µM (≈ 12.8 µg/mL); in data set [16], 25 µM (≈ 25.5 µg/mL); in data set [17] it was 1.56 µM (≈ 1.59 µg/mL). In data set [18], this compound came in with an MIC of 50 µM (≈ 51 µg/mL). Also, the MHC in data set [2] amounted to 100 µM. Besides, the Selectivity ratio came to 16 in data set [7], 4 in data set [15], 4 in data set [19] and 4 in data set [21]. The same compound registered a half-life in [13] of more than 2 h. The hemolysis at 1 h, 100 µM in data set [14] is 2.5%. The HC50 at 1 h in data set [20] was more than 100 µM.

Turning to `CC(C)C[C@@H]1NC(=O)CN(Cc2ccc(-c3ccccc3)cc2)NC(=O)[C@H](CC(C)C)NC(=O)CN(Cc2ccc(-c3ccccc3)cc2)NC(=O)[C@H](CCCCN)NC(=O)CN(CCCCN)NC1=O`, the MIC is more than 100 µM in data set [1]; 1.56 µM (≈ 1.52 µg/mL) in data set [3]; 3.12 µM (≈ 3.04 µg/mL) in data set [4]; 6.25 µM (≈ 6.09 µg/mL) in data set [5]; 12.5 µM (≈ 12.2 µg/mL) in data set [6]; 100 µM (≈ 97.4 µg/mL) in data set [8]. Besides, the MIC in data set [9] was found to be 1.56 µM (≈ 1.52 µg/mL); in [10], 1.56 µM (≈ 1.52 µg/mL); in data set [11], 0.78 µM (≈ 0.76 µg/mL); in data set [12], 25 µM (≈ 24.4 µg/mL); in data set [16], 25 µM (≈ 24.4 µg/mL); in data set [17], 0.78 µM (≈ 0.76 µg/mL). Besides, in [18], the minimum inhibitory concentration (MIC) worked out at 12.5 µM (≈ 12.2 µg/mL). Besides, in data set [14], the hemolysis at 1 h, 100 µM came out at 90%. In addition, the Selectivity ratio came out at 1.2 in data set [15], 9.6 in [19], 0.12 in data set [22] and 1 in data set [21]. For the same compound, in [20], the 50% haemolytic concentration (HC50) at 1 h is 15 µM.

As for `N=C(N)NCCC[C@@H]1NC(=O)CN(CCCCN)NC(=O)CN(Cc2ccc3ccccc3c2)NC(=O)[C@H](Cc2ccccc2)NC(=O)CN(Cc2ccc3ccccc3c2)NC1=O`, the minimal inhibitory concentration (MIC) in data set [1] is more than 100 µM; in data set [3], 25 µM (≈ 21.8 µg/mL); in data set [4] it was 100 µM (≈ 87.1 µg/mL); in data set [5], more than 100 µM; in data set [6], 100 µM (≈ 87.1 µg/mL); in [8], 100 µM (≈ 87.1 µg/mL). The minimal inhibitory concentration (MIC) in [9] is 50 µM (≈ 43.6 µg/mL); in data set [10], 12.5 µM (≈ 10.9 µg/mL); in [11], 6.25 µM (≈ 5.44 µg/mL); in [12], 100 µM (≈ 87.1 µg/mL); in data set [16] it was more than 100 µM; in data set [17], 3.12 µM (≈ 2.72 µg/mL). In [18], this compound had an MIC of 50 µM (≈ 43.6 µg/mL). Also, in [14], the hemolysis at 1 h, 100 µM is 1%. For the same compound, the Selectivity ratio in data set [15] amounted to 1; in data set [19] it was 2; in data set [22] it was 1; in data set [21], 2. Moreover, in data set [20], the 50% haemolytic concentration (HC50) at 1 h is more than 100 µM.

`CC(C)C[C@@H]1NC(=O)CN(Cc2ccc(-c3ccccc3)cc2)NC(=O)[C@H](CCCCN)NC(=O)CN(CCCCN)NC(=O)CN(Cc2ccc(-c3ccccc3)cc2)NC1=O`: the minimal inhibitory concentration (MIC) was more than 100 µM in data set [1]; 12.5 µM (≈ 10.8 µg/mL) in data set [3]; 50 µM (≈ 43.1 µg/mL) in data set [4]; 50 µM (≈ 43.1 µg/mL) in [5]; 50 µM (≈ 43.1 µg/mL) in data set [6]; 50 µM (≈ 43.1 µg/mL) in data set [8]. Besides, the MIC in [9] amounted to 25 µM (≈ 21.5 µg/mL); in data set [10], 6.25 µM (≈ 5.38 µg/mL); in data set [11], 3.12 µM (≈ 2.69 µg/mL); in data set [12], 25 µM (≈ 21.5 µg/mL); in data set [16] it was 50 µM (≈ 43.1 µg/mL); in [17], 3.12 µM (≈ 2.69 µg/mL). The compound also showed an MIC in data set [18] of 50 µM (≈ 43.1 µg/mL). For the same compound, the MHC in data set [2] amounted to 25 µM. Further, the hemolysis at 1 h, 100 µM in data set [14] was determined as 30%. Moreover, the Selectivity ratio in data set [15] came to 2; in data set [19] it was 4; in data set [22], 0.5; in [21], 1. Besides, the HC50 at 1 h in data set [20] was more than 100 µM.
